Reference: patent publication US20040022667A1 (priority 2001, published 2004)

Experiments:
anthrax spores = format: cell-based, Bacillus anthracis; settings: ~50 ppm (approx. 50 mg/liter) pure ClO2 in water
[1] = 20° C.; cited from earlier work

Molecule | time to substantially destroy anthrax spores (anthrax spores) | solubility per liter of water [1] [mg]
Chlorine dioxide | less than 1 min | –
O=O [oxygen] | – | 9.2
